Test: Evaluation 3: 20-μm pattern line width of black photosensitive composition
Conditions: black composition (carbon black, cardo resin), initiator 0.4 mmol
Summary of the method: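 Composition spin-coated on glass to 1.0 μm dry thickness, dried 90 °C for 10 min, exposed at 10–80 mJ/cm^2 via high-pressure mercury lamp through 20 μm negative mask, developed in 0.1 wt % TMAH, rinsed. Line width of remaining cured film measured; larger width means higher sensitivity.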

In the case of `CCCC1(CCC)c2cc(C(=O)c3ccccc3C)ccc2-c2ccc(/C(C)=N/OC(C)=O)cc21` [Compound 4], the “20-μm pattern line width” value (10 mJ/cm^2) is reported as 19.4, the “20-μm pattern line width” value (20 mJ/cm^2) is reported as 20.0 and the “20-μm pattern line width” value (40 mJ/cm^2) is reported as 21.3. For the same molecule, the “20-μm pattern line width” value (60 mJ/cm^2) was 22.1 and the “20-μm pattern line width” value (80 mJ/cm^2) was 22.4.
